Assay results from the supplement of paper PMC8633005.

Experiments:
FM-MEL-2 [1] = conditions: 72 h
Procedure: (§1)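 Validation dose-response testing of selected drugs on NRAS-mutant melanoma patient-derived cells, run in 2D culture and in 3D spheroids (ultra-low attachment plates), in triplicate per concentration. Viability was read by CellTiter-Glo after 72 h. EC50 came from Breeze curve fitting, and DSS was calculated from the curve.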

FM-MEL-3 [2] = conditions: 72 h
Procedure: as §1

FM-MEL-6 [3] = conditions: 72 h
Procedure: as §1

FM-MEL-2 [4] = experiment: drug sensitivity score (DSS) (DSS (unitless)); higher = more sensitive; conditions: 72 h
Procedure: as §1

FM-MEL-3 [5] = experiment: as above; conditions: 72 h
Procedure: as §1

FM-MEL-6 [6] = experiment: as above; conditions: 72 h
Procedure: as §1

Bowes = experiment: drug sensitivity score (DSS) (DSS (unitless, 0-50 scale)); higher = more sensitive (stronger viability inhibition); extreme values may be limits of the assay; conditions: 72 h; culture: 2D
How it was run: (§2)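 Drug sensitivity scores, modified area-under-curve measures, were derived from dose-response curves fitted in the in-house Breeze software. The curves came from melanoma cell lines and patient-derived melanoma cultures (1000–1500 cells per well) grown in 2D in 384-well plates holding a 527-compound oncology library. Each compound was dissolved in DMSO or water and tested at five concentrations across a 10,000-fold range. Viability was read by CellTiter-Glo luminescence after 72 h at 37 °C.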

FM-MEL-2 [7] = experiment: as above; conditions: 72 h; culture: 2D
How it was run: as §2

FM-MEL-3 [8] = experiment: as above; conditions: 72 h; culture: 2D
How it was run: as §2

FM-MEL-6 [9] = experiment: as above; conditions: 72 h; culture: 2D
How it was run: as §2

SK-MEL-28 = experiment: as above; conditions: 72 h; culture: 2D
How it was run: as §2

SK-MEL-2 = experiment: as above; conditions: 72 h; culture: 2D
How it was run: as §2

WM165 = experiment: as above; conditions: 72 h; culture: 2D
How it was run: as §2

WM852 = experiment: as above; conditions: 72 h; culture: 2D
How it was run: as §2

Row | SMILES | EC50 (cell viability) (FM-MEL-2 [1]; culture: 2D) [nM] | EC50 (cell viability) (FM-MEL-2 [1]; culture: 3D spheroid) [nM] | EC50 (cell viability) (FM-MEL-3 [2]; culture: 2D) [nM] | EC50 (cell viability) (FM-MEL-3 [2]; culture: 3D spheroid) [nM] | EC50 (cell viability) (FM-MEL-6 [3]; culture: 2D) [nM] | EC50 (cell viability) (FM-MEL-6 [3]; culture: 3D spheroid) [nM] | drug sensitivity score (FM-MEL-2 [4]; culture: 2D) | drug sensitivity score (FM-MEL-2 [4]; culture: 3D spheroid) | drug sensitivity score (FM-MEL-3 [5]; culture: 2D) | drug sensitivity score (FM-MEL-3 [5]; culture: 3D spheroid) | drug sensitivity score (FM-MEL-6 [6]; culture: 2D) | drug sensitivity score (FM-MEL-6 [6]; culture: 3D spheroid) | drug sensitivity score (Bowes) | drug sensitivity score (FM-MEL-2 [7]) | drug sensitivity score (FM-MEL-3 [8]) | drug sensitivity score (FM-MEL-6 [9]) | drug sensitivity score (SK-MEL-28) | drug sensitivity score (SK-MEL-2) | drug sensitivity score (WM165) | drug sensitivity score (WM852)
1 | Cn1c(=O)n(-c2ccc(C(C)(C)C#N)cc2)c2c3cc(-c4cnc5ccccc5c4)ccc3ncc21 [Dactolisib] | 15.2 | 12.1 | 22.6 | 7.4 | 26.9 | 13.1 | 13.5 | 14.6 | 13.7 | 22.9 | 7.4 | 10.1 | 12.8 | 12.5 | 15.1 | 15.1 | 13.5 | 9.9 | 17.6 | 10.7
2 | COc1ccc(-c2ccc3c(N4CCOC[C@@H]4C)nc(N4CCOC[C@@H]4C)nc3n2)cc1CO [AZD8055] | 60.6 | 54.1 | 72.8 | 50.7 | 94.2 | 66.2 | 18.2 | 18.1 | 20.3 | 26.2 | 11.3 | 13.4 | 20.1 | 15.6 | 14.2 | 17.3 | 16.4 | 13.9 | 21.7 | 15
3 | O=C(c1ccc(F)c(F)c1Nc1ccc(I)cc1F)N1CC(O)([C@@H]2CCCCN2)C1 [Cobimetinib] | 5.7 | 4 | 12.5 | 6.2 | 28.1 | 8.1 | 20.2 | 21.8 | 20.7 | 26.6 | 10.4 | 19.5 | 0.3 | 15.5 | 20.7 | 9.4 | 21.3 | 11.5 | 21.3 | 4.3
4 | CC(C)NC(=O)COc1cccc(-c2nc(Nc3ccc4[nH]ncc4c3)c3ccccc3n2)c1 [KD025] | 55.7 | 42.8 | > 5000 | 440 | > 5000 | > 5000 | 21.7 | 24.2 | 0 | 4.5 | 0 | 0 | 2.6 | 18.9 | 13 | 3 | 1.6 | 0 | 5.4 | 7.5
5 | COc1cccc(OCCCN)c1-c1cc(Nc2cnc(C#N)cn2)n[nH]1 [Prexasertib] | 851 | 2030 | 52 | 48.7 | 137 | 6570 | 7.7 | 4.9 | 21.1 | 25.6 | 6.4 | 0.8 | 28.6 | 10.5 | 19.1 | 26.6 | 8.6 | 28.7 | 24.1 | 27.7
6 | COc1ncc(-c2ccc3nccc(-c4ccnnc4)c3c2)cc1NS(=O)(=O)c1ccc(F)cc1F [Omipalisib] | 5.5 | 4 | 7.3 | 5.2 | 5.5 | 4.4 | 16.9 | 17.5 | 24.1 | 27.3 | 14.9 | 19 | 16.9 | 15.3 | 17.9 | 14.7 | 16.3 | 9.5 | 15.5 | 13.8
7 | CC(C)(C)C[C@@H]1N[C@@H](C(=O)N[C@H]2CC[C@H](O)CC2)[C@H](c2cccc(Cl)c2F)[C@]12C(=O)Nc1cc(Cl)ccc12 | – | – | – | – | – | – | – | – | – | – | – | – | 2.2 | 3.1 | 16.6 | 0 | 0 | 0 | 15.9 | 0
8 | Cc1cc(Nc2cc(N3CCN(C)CC3)nc(Sc3ccc(NC(=O)C4CC4)cc3)n2)n[nH]1 [Tozasertib] | – | – | – | – | – | – | – | – | – | – | – | – | 11.7 | 1.9 | 4.5 | 2.7 | 5.1 | 2.8 | 12.8 | 3.5
9 | Nc1cc(COc2c(Cl)cc(C[C@H](N)C(=O)O)cc2Cl)c2oc(-c3ccccc3)nc2c1 [JPH203] | – | – | – | – | – | – | – | – | – | – | – | – | 0 | 0 | 0 | 0.6 | 0 | 0 | 0 | 0
10 | O=C(O)C(=O)O.[NH-][C@@H]1CCCC[C@H]1[NH-].[Pt+2] [Oxaliplatin] | – | – | – | – | – | – | – | – | – | – | – | – | 5.8 | 4.7 | 3.2 | 11.7 | 7.3 | 4.3 | 14.5 | 3.5
11 | COc1cc(CCc2cc(NC(=O)c3ccc(N4CC(C)NC(C)C4)cc3)n[nH]2)cc(OC)c1 (centres undefined) [AZD4547] | – | – | – | – | – | – | – | – | – | – | – | – | 0 | 0 | 0 | 0 | 0 | 0 | 0 | 0
12 | CN1CCN(C2CCN(C(=O)Nc3cc(Oc4ccc(NC(=O)C5(C(=O)Nc6ccc(F)cc6)CC5)c(F)c4)ccn3)CC2)CC1 [Golvatinib] | – | – | – | – | – | – | – | – | – | – | – | – | 2.3 | 1.5 | 0 | 0 | 0 | 0 | 0 | 0.5
13 | CCCCCCCCc1ccc(CCC(N)(CO)CO)cc1 [Fingolimod] | – | – | – | – | – | – | – | – | – | – | – | – | 8.5 | 6.2 | 7.5 | 6.4 | 6.2 | 5.7 | 6.3 | 7
14 | O=C(CCCCCCC(=O)Nc1ccc([C@H]2O[C@@H](CSc3nc(-c4ccccc4)c(-c4ccccc4)o3)C[C@@H](c3ccc(CO)cc3)O2)cc1)NO [Tubacin] | – | – | – | – | – | – | – | – | – | – | – | – | 4.9 | 0.9 | 0 | 0.2 | 0 | 0.8 | 4.7 | 3.9
